According to patent US10308649B2, “Compounds and methods to suppress autoimmune response” (Oregon State University, priority 2014, dated 2019):

System: NOD.Foxp3DTR mice
Experiment: Flow cytometry of PLN cells of NOD.Foxp3DTR mice
Format: in vivo, mouse
Procedure: FIG. 6a illustrates details of the mouse model used to analyze the therapeutic effects and mechanisms by which AhR activation alters T cell differentiation. […] Arrows 152 illustrate the NOD.Foxp3^DTR mice were orally dosed with 60 mg/kg AHRL1 on days −1, 1, 3, 5, and 7 relative to DT treatment on day 0. The carrier for AHRL1 was a 30% DMSO, 20% CREMAPHOR, 50% PECEOL solution. Data was also collected from NOD.Foxp3^DTR mice treated with TCDD on day −1 relative to DT treatment on day 0. […] Non-obese diabetic Foxp3 wild type (NOD.Foxp3^WT) mice treated with DT and NOD.Foxp3^DTR mice treated with vehicle were used as controls. The vehicle was the carrier for AHRL1. Arrow 158 illustrates sacrifice of the mice on day 9.
The leukocyte composition of the pancreas and draining lymph nodes was analyzed using flow cytometry. Draining lymph nodes and pancreata were excised from the sacrificed mice, and single cell suspensions were prepared for analysis with flow cytometry. […] Data were acquired using an FC-500 flow cytometer (BECKMAN COULTER) and compensated and analyzed using FLOWJO software. […]

In the case of `Clc1cc2c(cc1Cl)Oc1cc(Cl)c(Cl)cc1O2` [TCDD, 2,3,7,8-tetrachlorodibenzo-p-dioxin], the “percentage of CD4+Foxp3- cells that were Nrp1+” value (DT treated NOD.Foxp3DTR mice) is reported as “decreased” and the “percentage of CD4+Foxp3- cells that were RORγt+” value (TCDD treated mice) is reported as 0.42%.
